Twelve compounds from ChEMBL document CHEMBL1135404, “Identification of a nonsteroidal liver X receptor agonist through parallel array synthesis of tertiary amines” (J Med Chem, 2002) can be followed below.

Active and inactive are the calls of the source.

Series [1] addresses T1, Oxysterols receptor LXR-alpha (Homo sapiens) (UniProt Q13133).
T1 sequence (whole entry): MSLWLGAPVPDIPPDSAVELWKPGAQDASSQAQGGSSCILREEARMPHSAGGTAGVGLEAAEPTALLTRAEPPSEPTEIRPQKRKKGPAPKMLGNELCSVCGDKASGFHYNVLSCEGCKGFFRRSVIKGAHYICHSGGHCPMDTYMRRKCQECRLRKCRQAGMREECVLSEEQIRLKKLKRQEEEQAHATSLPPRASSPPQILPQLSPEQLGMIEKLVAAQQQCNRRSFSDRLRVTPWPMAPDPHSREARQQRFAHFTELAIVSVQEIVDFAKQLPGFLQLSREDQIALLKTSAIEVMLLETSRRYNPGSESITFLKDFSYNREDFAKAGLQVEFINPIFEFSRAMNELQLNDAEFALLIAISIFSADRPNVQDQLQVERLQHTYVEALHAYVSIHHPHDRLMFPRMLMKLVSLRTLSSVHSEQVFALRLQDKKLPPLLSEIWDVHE
Description: Relative efficacy compared to 24(S),25-epoxy cholesterol in LXR alpha-Gal4 receptor gene assay

Series [2] deals with T2, Oxysterols receptor LXR-alpha (Homo sapiens, UniProt Q13133).
T2 sequence (Q13133 whole entry): T1 sequence (whole entry)
Nature of the series: Effective concentration in LXR alpha-Gal4 receptor gene assay.

For series [3], the target named is T2, Oxysterols receptor LXR-alpha. Nature of the series: Ligand-dependent recruitment of steroid receptor co-activator 1 (SRC1) to Liver X receptor-alpha.
The target in series [4] is T1, Oxysterols receptor LXR-alpha (Homo sapiens). The source holds these as a separate data set.
Description: Relative efficacy compared to 24(S),25-epoxy cholesterol in Liver X receptor-alpha ligand-sensing assay
The target is the same in series [5]. Nature of the series: Effective concentration in LXR alpha-Gal4 receptor gene assay; inactive at 10 uM.
Series [6] in a line: the half-life (t1/2) in mice after a dose of 10 mg/kg. Format: ADME, organism-based. Also on record: dose 10 mg/kg. Particulars: mouse, in vivo.
Series [7] is described as follows: Cmax in mice after 10 mg/kg oral dose. It counts as ADME, organism-based. More on the design: dose 10 mg/kg, route oral. Particulars: mouse, in vivo.
Series [8] can be described thus: Oral bioavailability after administration of a dose of 10 mg/kg. It counts as ADME, organism-based. Particulars: in vivo.

The EC50 is the concentration at which the effect is half-maximal. A low value points to greater potency. As for `COc1ccc(CN(CCCOc2cccc(CC(N)=O)c2)CC(c2ccccc2)c2ccccc2)c(OC)c1`, the RE in series [1] amounted to 0.6; in series [4], 0.7. For the same compound, the EC50 came out at 4000 nM in series [2] and 660 nM in series [3].
For `COc1ccc(CN(CCCOc2cccc(CC(N)=O)c2)CC(c2ccccc2)c2ccccc2)c(F)c1`, the RE in series [1] stood at 0.4; in series [4], 0.9. For the same compound, the EC50 amounted to 700 nM in series [2] and 190 nM in series [3].
`COc1ccc(CN(CCCOc2cccc(C(N)=O)c2)CC(c2ccccc2)c2ccccc2)cc1OC`: the EC50 in series [3] turned out to be 260 nM. This compound also yielded an RE in series [4] of 0.2.
As to `COc1ccc(CN(CCCOc2cccc(CC(=O)O)c2)CC(c2ccccc2)c2ccccc2)cc1`, the RE in series [1] amounted to 0.9; in series [4], 0.8. Also, the values for the EC50 in series [2] and in series [3] were 8000 nM and 860 nM, respectively.
Take `O=S(=O)(c1ccccc1)N(CC(F)(F)F)c1ccc(C(O)(C(F)(F)F)C(F)(F)F)cc1`: the RE was 2.5 in series [1] and 1 in series [4].
In the case of `NC(=O)Cc1cccc(OCCCN(Cc2ccc(F)c(C(F)(F)F)c2)CC(c2ccccc2)c2ccccc2)c1`, the RE in series [1] is 0.4; in series [4], 0.9. Further, the EC50 in series [2] turned out to be 945 nM; in series [3] it was 85 nM.
With `COc1ccc(CN(CCCOc2cccc(CC(N)=O)c2)CC(c2ccccc2)c2ccccc2)cc1`, the response in series [3] was half-maximal at 260 nM (EC50). In series [4], this compound yielded an RE of 0.8. Also, the IA result in series [5] was “inactive”.
By half-life is commonly meant the time needed for the level to fall by half in the phase considered. In general, Cmax refers to the highest concentration seen after dosing. The bioavailability is dose-corrected exposure relative to a reference, in per cent. As for `O=C(O)Cc1cccc(OCCCN(Cc2cccc(C(F)(F)F)c2Cl)CC(c2ccccc2)c2ccccc2)c1`, the RE in series [1] is 1.7; in series [4], 1. The compound further showed a half-life in series [6] of 2 h. Moreover, the results for the EC50 in series [2] and in series [3] were 190 nM and 125 nM, respectively. The compound further came in with a Cmax in series [7] of 12700 ng/mL. Besides, in series [8], the bioavailability worked out at 70%.
For `C[C@H](CC[C@@H]1OC1(C)C)[C@H]1CC[C@H]2[C@@H]3CC=C4C[C@@H](O)CC[C@]4(C)[C@H]3CC[C@]12C` [24(S),25-EPOXYCHOLESTEROL], the RE in series [1] and in series [4] was 1 in each case. Besides, the EC50 was found to be 3000 nM in series [2] and 95 nM in series [3].
In the case of `COc1ccc(CN(CCCOc2cccc(CC(N)=O)c2)CC(c2ccccc2)c2ccccc2)cc1F`, the results for the RE in series [1] and in series [4] were 0.5 and 0.7, respectively. Further, the EC50 stood at 910 nM in series [2] and 250 nM in series [3].
On the same counts, the results for `NC(=O)Cc1cccc(OCCCN(Cc2cccc(C(F)(F)F)c2)CC(c2ccccc2)c2ccccc2)c1` are 0.3, 0.7, 650 nM and 85 nM.
Turning to `NC(=O)Cc1cccc(OCCCN(Cc2cccc(C(F)(F)F)c2Cl)CC(c2ccccc2)c2ccccc2)c1`, the RE in series [1] amounted to 1.5; in series [4], 1.1. The figures for the half-maximal effective concentration (EC50) in series [2] and in series [3] were 425 nM and 45 nM, respectively.
